Measurements reported in patent US11130793B2, “GLP-1/GLP-2 dual agonists” (Zealand Pharma A/S, priority 2016, dated 2021).
pEC50: −log10 of the molar value. Square brackets hold non-standard residues; d marks the D form. Peptide text beside a SMILES is read from it. Aib = CC(C)(N)C(=O)O

Columns and labels:
human GLP-1 receptor = target: T1, human GLP-1 receptor (Homo sapiens, UniProt P43220); assay: GLP-1 receptor potency assay (cAMP AlphaScreen, HEK293 cells stably expressing GLP-1R); format: cell-based; conditions: cAMP response, HEK293 cells expressing human GLP-1R; read-out: EC50 GLP-1
T1 construct: expressed in transfected cells
Procedure, shortened: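 cAMP accumulation was quantified by AlphaScreen in G418-selected HEK293 cells stably transfected with human GLP-1R cDNA. Concentration-response data were normalized between vehicle and positive control. EC50 and maximal response came from 4PL curve fitting.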

human GLP-2 receptor = target: T2, human GLP-2 receptor (Homo sapiens, UniProt O95838, D470N); assay: GLP-2 receptor potency assay (cAMP AlphaScreen, HEK293 cells stably expressing GLP-2R); format: cell-based; conditions: cAMP response, HEK293 cells expressing human GLP-2R
T2 sequence (O95838 1-553 D470N): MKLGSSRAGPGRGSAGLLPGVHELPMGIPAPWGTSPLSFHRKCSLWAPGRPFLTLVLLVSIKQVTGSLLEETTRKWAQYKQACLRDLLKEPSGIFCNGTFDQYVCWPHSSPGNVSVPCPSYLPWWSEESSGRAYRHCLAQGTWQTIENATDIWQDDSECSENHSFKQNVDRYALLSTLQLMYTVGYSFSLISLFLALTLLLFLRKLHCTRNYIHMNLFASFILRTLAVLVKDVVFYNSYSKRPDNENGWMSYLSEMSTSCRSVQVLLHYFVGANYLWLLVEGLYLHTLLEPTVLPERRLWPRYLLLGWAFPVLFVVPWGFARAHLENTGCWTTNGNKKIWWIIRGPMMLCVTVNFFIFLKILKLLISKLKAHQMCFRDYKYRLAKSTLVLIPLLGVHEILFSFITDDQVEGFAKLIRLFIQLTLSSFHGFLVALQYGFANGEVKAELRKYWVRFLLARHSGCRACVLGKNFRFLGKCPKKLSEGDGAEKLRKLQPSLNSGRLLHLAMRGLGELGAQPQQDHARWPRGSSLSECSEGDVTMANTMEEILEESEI
Procedure, shortened: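 EC50 and maximal response were fitted with a 4PL model after normalization to positive control and vehicle. cAMP accumulation was quantified by AlphaScreen in a stable HEK293 clone transfected with human GLP-2 receptor.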

T1 sequence (P43220 24-463): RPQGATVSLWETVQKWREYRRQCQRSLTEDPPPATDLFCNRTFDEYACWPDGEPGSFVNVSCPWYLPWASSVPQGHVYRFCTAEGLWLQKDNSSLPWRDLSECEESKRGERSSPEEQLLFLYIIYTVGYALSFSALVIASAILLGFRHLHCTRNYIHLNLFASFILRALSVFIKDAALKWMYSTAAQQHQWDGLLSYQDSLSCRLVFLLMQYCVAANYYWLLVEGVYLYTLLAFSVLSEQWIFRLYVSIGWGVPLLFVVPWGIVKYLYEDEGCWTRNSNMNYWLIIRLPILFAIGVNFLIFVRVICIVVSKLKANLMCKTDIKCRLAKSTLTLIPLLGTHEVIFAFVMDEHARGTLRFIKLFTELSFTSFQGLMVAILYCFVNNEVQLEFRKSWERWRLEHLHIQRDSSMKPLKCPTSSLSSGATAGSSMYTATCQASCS

Structure (SMILES) | pEC50 (human GLP-1 receptor) | pEC50 (human GLP-2 receptor)
CC[C@H](C)[C@H](NC(=O)[C@H](Cc1ccccc1)NC(=O)[C@H](CC(=O)O)NC(=O)[C@H](CCCNC(=N)N)NC(=O)[C@H](C)NC(=O)[C@H](C)NC(=O)[C@H](CCC(N)=O)NC(=O)[C@H](CCC(=O)O)NC(=O)[C@H](CC(=O)O)NC(=O)[C@H](CC(C)C)NC(=O)[C@@H](NC(=O)[C@@H](NC(=O)[C@H](C)NC(=O)[C@H](CC(C)C)NC(=O)[C@H](CCC(=O)O)NC(=O)[C@H](CO)NC(=O)[C@@H](NC(=O)[C@H](Cc1ccccc1)NC(=O)[C@@H](NC(=O)CNC(=O)[C@H](CCC(=O)O)NC(=O)C(C)(C)NC(=O)[C@@H](N)Cc1c[nH]cn1)[C@@H](C)O)[C@@H](C)O)[C@@H](C)O)[C@@H](C)CC)C(=O)N[C@@H](CC(N)=O)C(=O)N[C@@H](Cc1c[nH]c2ccccc12)C(=O)N[C@@H](CC(C)C)C(=O)N[C@@H](CCCCN)C(=O)N[C@@H](CO)C(=O)N[C@@H](Cc1ccc(O)cc1)C(=O)N[C@@H](CCCCN)C(=O)N[C@H](C(=O)N[C@H](C(=O)N[C@@H](CC(=O)O)C(=O)O)[C@@H](C)O)[C@@H](C)CC [Compound 36] (H-H[Aib]EGTFTSELATILDEQAARDFINWLKSYKITD-OH) | 11.15 | 9.96
CC[C@H](C)[C@H](NC(=O)[C@H](CC(C)C)NC(=O)[C@H](Cc1c[nH]c2ccccc12)NC(=O)[C@H](C)NC(=O)[C@@H](NC(=O)[C@H](Cc1ccccc1)NC(=O)[C@H](CC(=O)O)NC(=O)[C@H](CCCNC(=N)N)NC(=O)[C@H](C)NC(=O)[C@H](C)NC(=O)[C@H](CCCCN)NC(=O)CNC(=O)[C@H](CC(=O)O)NC(=O)[C@H](CC(C)C)NC(=O)[C@@H](NC(=O)[C@@H](NC(=O)[C@H](C)NC(=O)[C@H](CC(C)C)NC(=O)[C@H](CCC(=O)O)NC(=O)[C@H](CO)NC(=O)[C@@H](NC(=O)[C@H](Cc1ccccc1)NC(=O)[C@H](CO)NC(=O)CNC(=O)[C@H](CCC(=O)O)NC(=O)C(C)(C)NC(=O)[C@@H](N)Cc1c[nH]cn1)[C@@H](C)O)[C@@H](C)O)[C@@H](C)CC)[C@@H](C)CC)C(=O)N[C@@H](C)C(=O)N[C@@H](Cc1c[nH]cn1)C(=O)N[C@@H](CCCCN)C(=O)N[C@H](C(=O)N[C@H](C(=O)N[C@@H](CC(=O)O)C(=O)O)[C@@H](C)O)[C@@H](C)CC [Compound 31] (H-H[Aib]EGSFTSELATILDGKAARDFIAWLIAHKITD-OH) | 10.70 | 10.11
CC[C@H](C)[C@H](NC(=O)[C@H](CC(C)C)NC(=O)[C@H](Cc1c[nH]c2ccccc12)NC(=O)[C@H](C)NC(=O)[C@@H](NC(=O)[C@H](Cc1ccccc1)NC(=O)[C@H](CC(=O)O)NC(=O)[C@H](CCCNC(=N)N)NC(=O)[C@H](C)NC(=O)[C@H](C)NC(=O)[C@H](CCCCN)NC(=O)CNC(=O)[C@H](CC(=O)O)NC(=O)[C@H](CC(C)C)NC(=O)[C@@H](NC(=O)[C@@H](NC(=O)[C@H](C)NC(=O)[C@H](CC(C)C)NC(=O)[C@H](CCC(=O)O)NC(=O)[C@H](CO)NC(=O)[C@@H](NC(=O)[C@H](Cc1ccccc1)NC(=O)[C@@H](NC(=O)CNC(=O)[C@H](CCC(=O)O)NC(=O)C(C)(C)NC(=O)[C@@H](N)Cc1c[nH]cn1)[C@@H](C)O)[C@@H](C)O)[C@@H](C)O)[C@@H](C)CC)[C@@H](C)CC)C(=O)N[C@@H](C)C(=O)N[C@@H](Cc1c[nH]cn1)C(=O)N[C@@H](CCCCN)C(=O)N[C@H](C(=O)N[C@H](C(=O)N[C@@H](CC(=O)O)C(=O)O)[C@@H](C)O)[C@@H](C)CC [Compound 11] (H-H[Aib]EGTFTSELATILDGKAARDFIAWLIAHKITD-OH) | 10.96 | 10.07
CC[C@H](C)[C@H](NC(=O)[C@H](Cc1ccccc1)NC(=O)[C@H](CC(=O)O)NC(=O)[C@H](CCCNC(=N)N)NC(=O)[C@H](C)NC(=O)[C@H](C)NC(=O)[C@H](CCC(N)=O)NC(=O)[C@H](CCC(=O)O)NC(=O)[C@H](CC(=O)O)NC(=O)[C@H](CC(C)C)NC(=O)[C@@H](NC(=O)[C@@H](NC(=O)[C@H](C)NC(=O)[C@H](CC(C)C)NC(=O)[C@H](CCC(=O)O)NC(=O)[C@H](CC(=O)O)NC(=O)[C@@H](NC(=O)[C@H](Cc1ccccc1)NC(=O)[C@@H](NC(=O)CNC(=O)[C@H](CCC(=O)O)NC(=O)C(C)(C)NC(=O)[C@@H](N)Cc1c[nH]cn1)[C@@H](C)O)[C@@H](C)O)[C@@H](C)O)[C@@H](C)CC)C(=O)N[C@@H](C)C(=O)N[C@@H](Cc1c[nH]c2ccccc12)C(=O)N[C@@H](CC(C)C)C(=O)N[C@@H](CCC(N)=O)C(=O)N[C@@H](C)C(=O)N[C@@H](CCC(N)=O)C(=O)N[C@@H](CCCCN)C(=O)N[C@H](C(=O)N[C@H](C(=O)N[C@@H](CC(=O)O)C(=O)O)[C@@H](C)O)[C@@H](C)CC [Compound 29] (H-H[Aib]EGTFTDELATILDEQAARDFIAWLQAQKITD-OH) | 10.36 | 9.96
CC[C@H](C)[C@H](NC(=O)[C@H](Cc1ccccc1)NC(=O)[C@H](CC(=O)O)NC(=O)[C@H](CCCNC(=N)N)NC(=O)[C@H](C)NC(=O)[C@H](C)NC(=O)[C@H](CCC(N)=O)NC(=O)[C@H](CCC(=O)O)NC(=O)[C@H](CC(=O)O)NC(=O)[C@H](CC(C)C)NC(=O)[C@@H](NC(=O)[C@@H](NC(=O)[C@H](C)NC(=O)[C@H](CC(C)C)NC(=O)[C@H](CCC(=O)O)NC(=O)[C@H](CO)NC(=O)[C@@H](NC(=O)[C@H](Cc1ccccc1)NC(=O)[C@@H](NC(=O)CNC(=O)[C@H](CCC(=O)O)NC(=O)C(C)(C)NC(=O)[C@@H](N)Cc1c[nH]cn1)[C@@H](C)O)[C@@H](C)O)[C@@H](C)O)[C@@H](C)CC)C(=O)N[C@@H](C)C(=O)N[C@@H](Cc1c[nH]c2ccccc12)C(=O)N[C@@H](CC(C)C)C(=O)N[C@@H](Cc1c[nH]cn1)C(=O)N[C@@H](C)C(=O)N[C@@H](Cc1c[nH]cn1)C(=O)N[C@@H](CCCCN)C(=O)N[C@H](C(=O)N[C@H](C(=O)N[C@@H](CC(=O)O)C(=O)O)[C@@H](C)O)[C@@H](C)CC [Compound 12] (H-H[Aib]EGTFTSELATILDEQAARDFIAWLHAHKITD-OH) | 10.26 | 10.12
CC[C@H](C)[C@H](NC(=O)[C@H](CC(C)C)NC(=O)[C@H](Cc1c[nH]c2ccccc12)NC(=O)[C@H](C)NC(=O)[C@@H](NC(=O)[C@H](Cc1ccccc1)NC(=O)[C@H](CC(=O)O)NC(=O)[C@H](CCCNC(=N)N)NC(=O)[C@H](C)NC(=O)[C@H](C)NC(=O)[C@H](CCC(N)=O)NC(=O)[C@H](CCC(=O)O)NC(=O)[C@H](CC(=O)O)NC(=O)[C@H](CC(C)C)NC(=O)[C@@H](NC(=O)[C@@H](NC(=O)[C@H](CO)NC(=O)[C@H](CC(C)C)NC(=O)[C@H](CCC(=O)O)NC(=O)[C@H](CO)NC(=O)[C@@H](NC(=O)[C@H](Cc1ccccc1)NC(=O)[C@@H](NC(=O)CNC(=O)[C@H](CCC(=O)O)NC(=O)C(C)(C)NC(=O)[C@@H](N)Cc1c[nH]cn1)[C@@H](C)O)[C@@H](C)O)[C@@H](C)O)[C@@H](C)CC)[C@@H](C)CC)C(=O)N[C@@H](C)C(=O)N[C@@H](Cc1c[nH]cn1)C(=O)N[C@@H](CCCCN)C(=O)N[C@H](C(=O)N[C@H](C(=O)N[C@@H](CC(=O)O)C(=O)O)[C@@H](C)O)[C@@H](C)CC [Compound 10] (H-H[Aib]EGTFTSELSTILDEQAARDFIAWLIAHKITD-OH) | 11.30 | 10.30
CC[C@H](C)[C@H](NC(=O)[C@H](Cc1ccccc1)NC(=O)[C@H](CC(=O)O)NC(=O)[C@H](CCCNC(=N)N)NC(=O)[C@H](C)NC(=O)[C@H](C)NC(=O)[C@H](CCC(N)=O)NC(=O)[C@H](CCC(=O)O)NC(=O)[C@H](CC(=O)O)NC(=O)[C@H](CC(C)C)NC(=O)[C@@H](NC(=O)[C@@H](NC(=O)[C@H](C)NC(=O)[C@H](CC(C)C)NC(=O)[C@H](CCC(=O)O)NC(=O)[C@H](CO)NC(=O)[C@@H](NC(=O)[C@H](Cc1ccccc1)NC(=O)[C@@H](NC(=O)CNC(=O)[C@H](CCC(=O)O)NC(=O)C(C)(C)NC(=O)[C@@H](N)Cc1c[nH]cn1)[C@@H](C)O)[C@@H](C)O)[C@@H](C)O)[C@@H](C)CC)C(=O)N[C@@H](C)C(=O)N[C@@H](Cc1c[nH]c2ccccc12)C(=O)N[C@@H](CC(C)C)C(=O)N[C@@H](CCC(N)=O)C(=O)N[C@@H](C)C(=O)N[C@@H](Cc1c[nH]cn1)C(=O)N[C@@H](CCCCN)C(=O)N[C@H](C(=O)N[C@H](C(=O)N[C@@H](CC(=O)O)C(=O)O)[C@@H](C)O)[C@@H](C)CC [Compound 13] (H-H[Aib]EGTFTSELATILDEQAARDFIAWLQAHKITD-OH) | 10.80 | 10.08
